Data taken from US9511073B2, “Aromatic amides and uses thereof” (TAXIS Pharmaceuticals, Inc., priority 2011, dated 2016).
Converted amounts (≈) assume the structure as drawn.

Test system: Staphylococcus aureus (Isolate ID ATCC 29213)
Assay: Bacterial assay: MIC by broth microdilution or agar dilution (CLSI), S. aureus ATCC 29213
Assay type: cell-based
Conditions: Staphylococcus aureus, ATCC29213, read-out: S. aureus MIC (μg/mL) Activity Range, S. aureus (ATCC29213)
Method in brief: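 Activity is binned (A ≤0.25 μg/mL; B >0.25–1.0; C >1.0–16; D >16 μg/mL) from MICs determined per CLSI by broth microdilution or agar dilution, on S. aureus ATCC 29213 plus an FtsZ-G196A mutant strain.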

SMILES | MIC
Cc1cc(CNC(=O)OCC(Oc2ccc(F)c(C(N)=O)c2F)c2nc(-c3ccc(C(F)(F)F)cc3)c(Br)o2)n(C)n1 (centres unmarked) [Compound 212, 2-(5-bromo-4-(4-(trifluoromethyl)phenyl)oxazol-2-yl)-2-(3-carbamoyl-2,4-difluorophenoxy)ethyl ((1,3-dimethyl-1H-pyrazol-5-yl)methyl)carbamate] | 0.25 to 1 µg/mL (≈ 0.38 to 1.52 µM)
CC(Oc1ccc(F)c(C(N)=O)c1F)c1nc(-c2cnc(C(F)(F)F)nc2)c(Cl)o1 (centres unmarked) [Compound 55] | 1 to 16 µg/mL (≈ 2.23 to 35.7 µM)
CS(=O)(=O)NCC(Oc1ccc(F)c(C(N)=O)c1F)c1nc(-c2ccc(C(F)(F)F)cc2)c(Br)o1 (centres unmarked) [Compound 285, 3-(1-(5-bromo-4-(4-(trifluoromethyl)phenyl)oxazol-2-yl)-2-(methylsulfonamido)ethoxy)-2,6-difluorobenzamide] | 1 to 16 µg/mL (≈ 1.71 to 27.4 µM)
NC(=O)c1c(F)ccc(OC(CCO)c2nc(-c3ccc(C(F)(F)F)cc3)c(Br)o2)c1F (centres unmarked) [Compound 73, 3-(1-(5-bromo-4-(4-(trifluoromethyl)phenyl)oxazol-2-yl)-3-hydroxypropoxy)-2,6-difluorobenzamide] | 0.25 to 1 µg/mL (≈ 0.48 to 1.92 µM)
C=CCCC(Oc1ccc(F)c(C(N)=O)c1F)c1nc(-c2ccc(C(F)(F)F)cc2)c(Br)o1 (centres unmarked) [Compound 124, 3-((1-(5-bromo-4-(4-(trifluoromethyl)phenyl)oxazol-2-yl)pent-4-en-1-yl)oxy)-2,6-difluorobenzamide] | 1 to 16 µg/mL (≈ 1.88 to 30.1 µM)
NC(=O)c1c(F)ccc(OC(CC(CO)CO)c2nc(-c3ccc(C(F)(F)F)cc3)c(Br)o2)c1F (centres unmarked) [Compound 139, 3-(1-(5-bromo-4-(4-(trifluoromethyl)phenyl)oxazol-2-yl)-4-hydroxy-3-(hydroxymethyl)butoxy)-2,6-difluorobenzamide] | 1 to 16 µg/mL (≈ 1.77 to 28.3 µM)
CCOC(=O)COCC(Oc1ccc(F)c(C(N)=O)c1F)c1nc(-c2ccc(C(F)(F)F)cc2)c(Br)o1 (centres unmarked) [Compound 84, ethyl 2-(2-(5-bromo-4-(4-(trifluoromethyl)phenyl)oxazol-2-yl)-2-(3-carbamoyl-2,4-difluorophenoxy)ethoxy)acetate] | 0.25 to 1 µg/mL (≈ 0.421 to 1.69 µM)
CC(Oc1ccc(F)c(C(N)=O)c1F)c1nc(Br)c(-c2ccc(C(F)(F)F)cc2)o1 (centres unmarked) [Compound 123] | 1 to 16 µg/mL (≈ 2.04 to 32.6 µM)
CNCC(=O)OCC(Oc1ccc(F)c(C(N)=O)c1F)c1nc(-c2ccc(Cl)cc2)c(Cl)o1 (centres unmarked) [Compound 59, 2-(3-carbamoyl-2,4-difluorophenoxy)-2-(5-chloro-4-(4-chlorophenyl)oxazol-2-yl)ethyl 2-(methylamino)acetate] | 0.25 to 1 µg/mL (≈ 0.5 to 2 µM)
NCCC(Oc1ccc(F)c(C(N)=O)c1F)c1nc(-c2ccc(C(F)(F)F)cc2)c(Br)o1 (centres unmarked) [Compound 95, 3-(3-amino-1-(5-bromo-4-(4-(trifluoromethyl)phenyl)oxazol-2-yl)propoxy)-2,6-difluorobenzamide] | > 16 µg/mL
Cn1nccc1CNC(=O)OCC(Oc1ccc(F)c(C(N)=O)c1F)c1nc(-c2ccc(C(F)(F)F)cc2)c(Br)o1 (centres unmarked) [Compound 194, 2-(5-bromo-4-(4-(trifluoromethyl)phenyl)oxazol-2-yl)-2-(3-carbamoyl-2,4-difluorophenoxy)ethyl ((1-methyl-1H-pyrazol-5-yl)methyl)carbamate] | < 0.25 µg/mL
C=CC(Oc1ccc(F)c(C(N)=O)c1F)c1nc(-c2ccc(C(F)(F)F)cc2)c(Br)o1 (centres unmarked) [Compound 102, 3-((1-(5-bromo-4-(4-(trifluoromethyl)phenyl)oxazol-2-yl)allyl)oxy)-2,6-difluorobenzamide] | 1 to 16 µg/mL (≈ 1.99 to 31.8 µM)
NC(=O)c1c(F)ccc(OC(COC(=O)NCCC(=O)O)c2nc(-c3ccc(C(F)(F)F)cc3)c(Br)o2)c1F (centres unmarked) [Compound 143, 3-(((2-(5-bromo-4-(4-(trifluoromethyl)phenyl)oxazol-2-yl)-2-(3-carbamoyl-2,4-difluorophenoxy)ethoxy)carbonyl)amino)propanoic acid] | 1 to 16 µg/mL (≈ 1.61 to 25.7 µM)
CCc1oc(-c2ccc(OC)cc2)nc1C(CO)Oc1ccc(F)c(C(N)=O)c1F (centres unmarked) [Compound 306, 3-(1-(5-ethyl-2-(4-methoxyphenyl)oxazol-4-yl)-2-hydroxyethoxy)-2,6-difluorobenzamide] | 1 to 16 µg/mL (≈ 2.39 to 38.2 µM)
CC(=O)OCC(Oc1ccc(F)c(C(N)=O)c1F)c1nc(-c2ccc(S(C)(=O)=O)cc2)c(Br)o1 (centres unmarked) [Compound 144, 2-(5-bromo-4-(4-(methylsulfonyl)phenyl)oxazol-2-yl)-2-(3-carbamoyl-2,4-difluorophenoxy)ethyl acetate] | > 16 µg/mL
NC(=O)c1c(F)ccc(OC(CO)c2nc(Br)c(-c3ccc(C(F)(F)F)cc3)o2)c1F (centres unmarked) [Compound 149, 3-(1-(4-bromo-5-(4-(trifluoromethyl)phenyl)oxazol-2-yl)-2-hydroxyethoxy)-2,6-difluorobenzamide] | 1 to 16 µg/mL (≈ 1.97 to 31.5 µM)
CN(Cc1ccccn1)C(=O)OCC(Oc1ccc(F)c(C(N)=O)c1F)c1nc(-c2ccc(C(F)(F)F)cc2)c(Br)o1 (centres unmarked) [Compound 191, 2-(5-bromo-4-(4-(trifluoromethyl)phenyl)oxazol-2-yl)-2-(3-carbamoyl-2,4-difluorophenoxy)ethyl methyl(pyridin-2-ylmethyl)carbamate] | 1 to 16 µg/mL (≈ 1.53 to 24.4 µM)
NC(=O)c1c(F)ccc(OC(CO)c2nc(-c3ccc(Cl)cc3)co2)c1F (centres unmarked) [Compound 10, 3-(1-(4-(4-chlorophenyl)oxazol-2-yl)-2-hydroxyethoxy)-2,6-difluorobenzamide] | > 16 µg/mL
NC(=O)c1c(F)ccc(OC(CO)c2nc(-c3ccc(F)cc3F)co2)c1F (centres unmarked) [Compound 226, 3-(1-(4-(2,4-difluorophenyl)oxazol-2-yl)-2-hydroxyethoxy)-2,6-difluorobenzamide] | > 16 µg/mL
CN(C)C(=O)OCC(Oc1ccc(F)c(C(N)=O)c1F)c1nc(-c2ccc(C(F)(F)F)cc2)c(Br)o1 (centres unmarked) [Compound 107, 2-(5-bromo-4-(4-(trifluoromethyl)phenyl)oxazol-2-yl)-2-(3-carbamoyl-2,4-difluorophenoxy)ethyl dimethylcarbamate] | < 0.25 µg/mL
CSc1oc(C(CO)Oc2ccc(F)c(C(N)=O)c2F)nc1-c1ccc(C(F)(F)F)cc1 (centres unmarked) [Compound 271, 2,6-difluoro-3-(2-hydroxy-1-(5-(methylthio)-4-(4-(trifluoromethyl)phenyl)oxazol-2-yl)ethoxy)benzamide] | 0.25 to 1 µg/mL (≈ 0.527 to 2.11 µM)
NC(=O)c1c(F)ccc(OC(CO)c2nc(-c3ccc(Cl)nc3)c(Br)o2)c1F (centres unmarked) [Compound 241, 3-(1-(5-bromo-4-(6-chloropyridin-3-yl)oxazol-2-yl)-2-hydroxyethoxy)-2,6-difluorobenzamide] | 1 to 16 µg/mL (≈ 2.11 to 33.7 µM)
C=CCC(Oc1ccc(F)c(C(N)=O)c1F)c1nc(-c2ccc(C(F)(F)F)cc2)c(Br)o1 (centres unmarked) [Compound 106, 3-((1-(5-bromo-4-(4-(trifluoromethyl)phenyl)oxazol-2-yl)but-3-en-1-yl)oxy)-2,6-difluorobenzamide] | 1 to 16 µg/mL (≈ 1.93 to 30.9 µM)
Cc1cc(Cl)ccc1-c1nc(C(CO)Oc2ccc(F)c(C(N)=O)c2F)oc1Br (centres unmarked) [Compound 239, 3-(1-(5-bromo-4-(4-chloro-2-methylphenyl)oxazol-2-yl)-2-hydroxyethoxy)-2,6-difluorobenzamide] | < 0.25 µg/mL
NC(=O)c1c(F)ccc(OC(CO)c2nc(-c3ccc(F)c(F)c3)c(Br)o2)c1F (centres unmarked) [Compound 248, 3-(1-(5-bromo-4-(3,4-difluorophenyl)oxazol-2-yl)-2-hydroxyethoxy)-2,6-difluorobenzamide] | 1 to 16 µg/mL (≈ 2.1 to 33.7 µM)
NC(=O)c1c(F)ccc(OC(CO)c2nc(-c3ccc(N4CCCC4)c(Br)c3)c(Br)o2)c1F (centres unmarked) [Compound 256, 3-(1-(5-bromo-4-(3-bromo-4-(pyrrolidin-1-yl)phenyl)oxazol-2-yl)-2-hydroxyethoxy)-2,6-difluorobenzamide] | 1 to 16 µg/mL (≈ 1.7 to 27.2 µM)
